The target of data set [1] is T1, human GPR84 (FLAG-hGPR84-eYFP) (Homo sapiens, UniProt Q9NQS5).
T1 construct: expressed in transfected cells
The data set can be described thus: [35S]GTPγS binding, membranes of cells expressing FLAG-hGPR84-eYFP. The data set is classed as biochemical. As for the experimental part: Membranes were generated from Flp-In T-REx HEK293 cells treated with 100 ng/mL doxycycline to induce expression of the receptor construct of interest. Cells were washed with ice-cold phosphate-buffered saline, removed from dishes by scraping and centrifuged at 3000 rpm for 5 min at 4 °C. Pellets were resuspended in TE buffer (10 mM Tris-HCl, 0.1 mM EDTA; pH 7.5) containing a protease inhibitor mixture (Roche Applied Science, West Sussex, UK) and homogenized with a 5 ml hand-held homogenizer. This material was centrifuged at 1500 rpm for 5 min at 4 °C and the supernatant was further centrifuged at 50000 rpm for 45 min at 4 °C. The resulting pellet was resuspended in TE buffer and protein content was assessed using a BCA protein assay kit (Pierce, Fisher Scientific, Loughborough, UK).
The reaction was then initiated with addition of [^35S]GTPγS (50 nCi per tube), and the reaction was terminated after 45 minutes incubation at 30 °C by rapid filtration through GF/C glass filters using a 24-well Brandel cell harvester (Alpha Biotech, Glasgow, UK). […] Dried filters were added to 3 mL of Ultima Gold^TM XR (PerkinElmer Life Sciences, Beaconsfield, UK) and [^35S]GTPγS binding was determined by liquid scintillation spectrometry.
All data are presented as means ± SEM of at least three independent experiments. Data analysis and curve fitting was carried out using the GraphPad Prism software package version 5.0b (GraphPad, San Diego). […] In case of inhibition experiments with antagonists an equivalent analysis was followed to fit an inverse sigmoidal curve. To perform the statistical analysis of curve parameters, data from multiple experiments were fitted independently and resulting curve fit values were analysed with indicated tests. For radioligand binding data, saturation binding curves were generated by fitting the specific binding, which was obtained by subtracting non-specific from total binding, to a one site specific binding model that allows calculation of Kd values for the radioligand at wild type and mutant receptors. To determine affinity of unlabelled ligands, data obtained in displacement assays were fit to an inverse three parameter sigmoidal curve constrained by radioligand affinity and concentration to allow for Ki calculation.
Background: GTPγS resists hydrolysis and so accumulates on activated G proteins.

Data set [2] addresses GPR84-Cys^352Ile Gαi2 fusion protein (Homo sapiens, UniProt Q9NQS5). Nature of the data set: [3H]G9543 radioligand binding (saturation and displacement), GPR84-Cys352Ile Gαi2 fusion protein. Details: Cys352Ile Gαi2 (fusion partner, same polypeptide); expressed in transfected cells; host or cells: membranes of Flp-In T-REx 293 cells, doxycycline-induced. To be noted: displacement assay. The method, then:
[^3H]G9543 is an analog of compounds 104, 107 and 161 with the same characteristic 2-(substituted-alkoxy)-9-substituted-6,7-dihydro-pyrimido[6,1-a]isoquinolin-4-one chemotype. […] Binding was initiated by the addition of membranes (5 µg of protein per tube). All assays were performed at 25 °C for 1 h before termination by the addition of ice-cold phosphate-buffered saline and vacuum filtration through GF/C glass filters using a 24-well Brandel cell harvester (Alpha Biotech, Glasgow, UK). Each reaction tube was washed three times with ice-cold PBS. The filters were allowed to dry for 2–3 h and then placed in 3 ml of Ultima Gold^TM XR. Radioactivity was quantified by liquid scintillation spectrometry. Specific binding was defined as the difference between binding detected in the presence and absence of 1 µM compound 104.
All data are presented as means ± SEM of at least three independent experiments. Data analysis and curve fitting was carried out using the GraphPad Prism software package version 5.0b (GraphPad, San Diego). For functional assays the concentration-response data were plotted on a log axis, with the untreated vehicle control plotted at 1 log unit lower than the lowest ligand concentration, and fitted to a three parameter sigmoidal curve with the Hill slope constrained to equal 1. In case of inhibition experiments with antagonists an equivalent analysis was followed to fit an inverse sigmoidal curve. To perform the statistical analysis of curve parameters, data from multiple experiments were fitted independently and resulting curve fit values were analysed with indicated tests. For radioligand binding data, saturation binding curves were generated by fitting the specific binding, which was obtained by subtracting non-specific from total binding, to a one site specific binding model that allows calculation of Kd values for the radioligand at wild type and mutant receptors. To determine affinity of unlabelled ligands, data obtained in displacement assays were fit to an inverse three parameter sigmoidal curve constrained by radioligand affinity and concentration to allow for Ki calculation.

The subject of data set [3] is patients with ulcerative colitis. Also on record: method as in doi:10.1093/ecco-jcc/jjx002.734. The following applies: cited from earlier work.
In a further data set the test system is wild type GPR84. Also on record: method as in PMID 25425658. The following applies: cited from earlier work.

These results are taken from PMC5738391, “Three classes of ligands each bind to distinct sites on the orphan G protein-coupled receptor GPR84” (Scientific Reports, 2017).

Sequence of GPR84-Cys^352Ile Gαi2 fusion protein (Q9NQS5 2-396): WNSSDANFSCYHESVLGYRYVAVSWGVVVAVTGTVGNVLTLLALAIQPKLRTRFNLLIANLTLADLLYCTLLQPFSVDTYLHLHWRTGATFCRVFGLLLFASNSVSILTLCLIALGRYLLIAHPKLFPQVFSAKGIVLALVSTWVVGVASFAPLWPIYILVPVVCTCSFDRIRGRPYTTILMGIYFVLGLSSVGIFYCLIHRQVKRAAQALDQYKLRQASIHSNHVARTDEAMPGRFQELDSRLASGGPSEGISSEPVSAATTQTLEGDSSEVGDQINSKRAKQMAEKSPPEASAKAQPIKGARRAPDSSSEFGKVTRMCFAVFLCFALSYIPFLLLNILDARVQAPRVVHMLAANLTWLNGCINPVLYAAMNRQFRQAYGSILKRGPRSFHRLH
T1 sequence (Q9NQS5 whole entry): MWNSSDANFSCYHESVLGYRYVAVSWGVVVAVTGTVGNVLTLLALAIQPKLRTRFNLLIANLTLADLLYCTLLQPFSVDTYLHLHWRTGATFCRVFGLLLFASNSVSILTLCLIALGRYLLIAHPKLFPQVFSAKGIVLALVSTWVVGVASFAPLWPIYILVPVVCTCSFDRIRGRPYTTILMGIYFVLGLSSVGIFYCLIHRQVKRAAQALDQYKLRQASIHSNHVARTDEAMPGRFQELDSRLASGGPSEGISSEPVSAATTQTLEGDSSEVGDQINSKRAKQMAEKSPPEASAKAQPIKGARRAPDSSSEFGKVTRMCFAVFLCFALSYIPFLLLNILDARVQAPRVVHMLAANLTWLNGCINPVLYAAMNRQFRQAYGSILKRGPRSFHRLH

As to `O=c1nc(OC[C@H]2COCCO2)cc2n1CCc1cc(OCc3noc(C4CC4)n3)ccc1-2` [Compound 104, 9-(5-cyclopropyl-[1,2,4]oxadiazol-3-ylmethoxy)-2-((R)-1-[1,4]dioxan-2-ylmethoxy)-6,7-dihydro-pyrimido[6,1-a]isoquinolin-4-one], the “ability to limit [35S]GTPγS binding induced by EC80 concentrations of C10 (50 μM), embelin (3 μM) and DIM (5 μM)” value in data set [1] is “more potent than 161”. Moreover, the “ability to compete with [3H]G9543 binding” value in data set [2] was “competed fully and effectively”. Further, the Ki in data set [2] (read-out: pKi, competition with [3H]G9543 (converted)) is 1.86 nM.
For the compound `O=c1nc(OC[C@@H]2COCCO2)cc2n1CCc1cc(C#CC3CC3)ccc1-2` [GLPG1205], the “efficacy in patients with ulcerative colitis” value in data set [3] (12 weeks of chronic dosing) is given as “did not show efficacy”. In data set [3] (patients with ulcerative colitis), the safety and tolerability entry was “safe and tolerable”.
With `CCCCCCCCCCN` [decylamine], in the data set with wild type GPR84, the “response of wild type GPR84” value was “failed to respond”.
